In patent US20230100235A1, “ANTICANCER AGENT COMPOSITION” (CARNA BIOSCIENCES, INC., priority 2020, published 2023):
pIC50: −log10 of the molar value.

Assays:
OCI-Ly10 cells [1] = assay: Cell proliferation suppression test of single agents, OCI-Ly10 (Alamar Blue, 96 h); type: cell-based, Human; conditions: Homo sapiens, OCI-Ly10, single agent, read-out: Inhibitory Activity on cell proliferation IC50 OCI-Ly10
Experimental: Human lymphoma cell line OCI-Ly10 cells (obtained from University Health Network) were cultured in a 5% CO2 incubator using IMDM medium (Iscove's Modified Dulbecco's Medium, Thermo Fisher Scientific Inc.) containing 20% fetal bovine serum (GE Healthcare) and 1% penicillin streptomycin (NACALAI TESQUE, INC.).
(§1) The OCI-Ly10 or U2932 cells (20000 cells/well) were seeded into 96-well plates (cell plates), to which the test compound diluted with the medium was added at final concentrations of 0.009 nM to 30000 nM (a final DMSO concentration of 0.3%), and after 96 hours of culture, an Alamar Blue reagent (Thermo Fisher Scientific Inc.) was added. After 3 hours, the fluorescence of excitation wavelength 560 nm/fluorescence wavelength 590 nm was measured and IC50 values of inhibitory activity were determined by setting a compound-free and cell-free well as 100% and a compound-free and cell-containing well as 0%.

U2932 cells [2] = assay: Cell proliferation suppression test of single agents, U2932 (Alamar Blue, 96 h); type: cell-based, Human; conditions: Homo sapiens, U2932, single agent, read-out: Inhibitory Activity on cell proliferation IC50 U2932
Experimental: Human lymphoma cell line U2932 cells (obtained from DSMZ) were cultured in a 5% CO2 incubator using RPMI medium (Roswell Park Memorial Institute medium, Thermo Fisher Scientific Inc.) containing 10% fetal bovine serum (GE Healthcare) and 1% penicillin streptomycin (NACALAI TESQUE, INC.).
as §1

[3] = test system: BTK-C481S-mutant OCI-Ly10 cells; assay: Cell proliferation suppression test of single agents, BTK-C481S-mutant OCI-Ly10; type: cell-based, Human; conditions: Homo sapiens, OCI-Ly10; single agent; read-out: Inhibitory activity on cell proliferation OCI-Ly10 BTK-C481S IC50
Experimental: as §1
(§2) BTK-C481S-mutant OCI-Ly10 cells were produced by point mutation knock-in using the CRISPR-Cas9 system. Cas9 protein (Thermo Fisher Scientific Inc.), guide RNA prepared with GeneArt™ Precision gRNA Synthesis Kit (Thermo Fisher Scientific Inc.), and a single-stranded synthetic oligonucleotide to replace 481st cysteine residue of BTK with a serine residue were introduced into OCI-Ly10 cells by an electroporation method. The resulting modified OCI-Ly10 cells were cultured in the presence of ibrutinib, and the grown cells were used as BTK-C481S-mutant OCI-Ly10 cells. Transduction of the mutation was confirmed by genomic DNA and mRNA sequence analysis.
In the same manner as in Test Example 1, IC50 values for each inhibitor single agent were determined.

OCI-Ly10 cells [4] = assay: Dose-response study of BTK inhibitor in the presence of BCL-2 inhibitor, OCI-Ly10; type: cell-based; conditions: Homo sapiens, read-out: Inhibitory activity on cell proliferation OCI-Ly10 IC50
Experimental: as §1
(§3) Changes in IC50 values of the BTK inhibitor in the presence of the BCL-2 inhibitor at various concentrations were examined.

U2932 cells [5] = assay: Dose-response study of BTK inhibitor in the presence of BCL-2 inhibitor, U2932; type: cell-based; conditions: Homo sapiens, read-out: Inhibitory activity on cell proliferation U2932 IC50
Experimental: as §1, §3
From the result obtained for the BCL-2 inhibitor used as a single agent, BCL-2 inhibitor concentrations for three doses were selected for each cancer cell line.

[6] = test system: BTK-C481S-mutant OCI-Ly10 cells; assay: Dose-response study of BTK inhibitor in the presence of BCL-2 inhibitor, BTK-C481S-mutant OCI-Ly10; type: cell-based; conditions: Homo sapiens, read-out: Inhibitory activity on cell proliferation OCI-Ly10 BTK-C481S IC50
Experimental: as §2
BTK-C481S-mutant lymphoma cells were used to examine changes in IC50 values of the BTK inhibitor in the presence of various concentrations of BCL-2 inhibitor.
From the results obtained for the BCL-2 inhibitor used as a single agent, BCL-2 inhibitor concentrations for three doses were selected for BTK-C481-mutant OCI-Ly10 cells.

[7] = OCI-Ly10, in the presence of S-55746 10 nM
[8] = OCI-Ly10, in the presence of S-55746 30 nM
[9] = OCI-Ly10, in the presence of S-55746 100 nM
[10] = OCI-Ly10, in the presence of navitoclax 10 nM
[11] = OCI-Ly10, in the presence of navitoclax 30 nM
[12] = OCI-Ly10, in the presence of navitoclax 100 nM
[13] = OCI-Ly10, in the presence of obatoclax mesylate 50 nM
[14] = OCI-Ly10, in the presence of obatoclax mesylate 100 nM
[15] = OCI-Ly10, in the presence of obatoclax mesylate 200 nM
[16] = OCI-Ly10, in the presence of venetoclax 1 nM
[17] = OCI-Ly10, in the presence of venetoclax 3 nM
[18] = OCI-Ly10, in the presence of venetoclax 10 nM
[19] = OCI-Ly10, obatoclax mesylate 0 nM

Compound: Cn1cc(Nc2nc(N)nc(-c3cccc(-n4ccc5cc(C6CC6)cc(F)c5c4=O)c3CO)n2)cn1 [Compound (II-A), 2-(3-{4-Amino-6-[(1-methyl-1H-pyrazol-4-yl)amino]-1,3,5-triazin-2-yl}-2-(hydroxymethyl)phenyl)-6-cyclopropyl-8-fluoroisoquinolin-1(2H)-one]
- pIC50 (OCI-Ly10 cells [1]): 7.38
- pIC50 (U2932 cells [2]): 4.46
- pIC50 [3]: 6.82
- pIC50 (OCI-Ly10 cells [4]; OCI-Ly10, S-55746 0 nM): 7.48
- pIC50 (OCI-Ly10 cells [4]; [7]): 7.54
- pIC50 (OCI-Ly10 cells [4]; [8]): 7.60
- pIC50 (OCI-Ly10 cells [4]; [9]): 7.74
- pIC50 (OCI-Ly10 cells [4]; [10]): 7.29
- pIC50 (OCI-Ly10 cells [4]; [11]): 7.38
- pIC50 (OCI-Ly10 cells [4]; [12]): 7.59
- pIC50 (OCI-Ly10 cells [4]; [13]): 7.60
- pIC50 (OCI-Ly10 cells [4]; [14]): 7.55
- pIC50 (OCI-Ly10 cells [4]; [15]): 7.52
- pIC50 (OCI-Ly10 cells [4]; [16]): 7.42
- pIC50 (OCI-Ly10 cells [4]; [17]): 7.57
- pIC50 (OCI-Ly10 cells [4]; [18]): 7.72
- pIC50 (OCI-Ly10 cells [4]; OCI-Ly10, navitoclax 0 nM): 7.23
- pIC50 (OCI-Ly10 cells [4]; [19]): 7.42
- pIC50 (OCI-Ly10 cells [4]; OCI-Ly10, venetoclax 0 nM): 7.38
- pIC50 (U2932 cells [5]; U2932, S-55746 0 nM): < 4.52
- pIC50 (U2932 cells [5]; U2932, in the presence of S-55746 100 nM): 5.24
- pIC50 (U2932 cells [5]; U2932, in the presence of S-55746 300 nM): 6.03
- pIC50 (U2932 cells [5]; U2932, in the presence of S-55746 1000 nM): 7.00
- pIC50 (U2932 cells [5]; U2932, in the presence of navitoclax 30 nM): 4.87
- pIC50 (U2932 cells [5]; U2932, in the presence of navitoclax 100 nM): 5.87
- pIC50 (U2932 cells [5]; U2932, in the presence of navitoclax 300 nM): 7.00
- pIC50 (U2932 cells [5]; U2932, in the presence of obatoclax mesylate 50 nM): 4.54
- pIC50 (U2932 cells [5]; U2932, in the presence of obatoclax mesylate 100 nM): 4.59
- pIC50 (U2932 cells [5]; U2932, in the presence of venetoclax 3 nM): 5.07
- pIC50 (U2932 cells [5]; U2932, in the presence of venetoclax 10 nM): 5.66
- pIC50 (U2932 cells [5]; U2932, in the presence of venetoclax 100 nM): 6.80
- pIC50 (U2932 cells [5]; U2932, navitoclax 0 nM): < 4.52
- pIC50 (U2932 cells [5]; U2932, obatoclax mesylate 0 nM): < 4.52
- pIC50 (U2932 cells [5]; U2932, venetoclax 0 nM): < 4.52
- pIC50 ([6]; OCI-Ly10, S-55746 0 nM): 6.82
- pIC50 [6, 7]: 7.03
- pIC50 [6, 8]: 7.16
- pIC50 [6, 9]: 7.41
- pIC50 [6, 10]: 6.59
- pIC50 [6, 11]: 6.68
- pIC50 [6, 12]: 6.96
- pIC50 [6, 13]: 7.00
- pIC50 [6, 14]: 7.02
- pIC50 [6, 15]: 7.21
- pIC50 [6, 16]: 6.96
- pIC50 [6, 17]: 7.10
- pIC50 [6, 18]: 7.28
- pIC50 ([6]; OCI-Ly10, navitoclax 0 nM): 6.47
- pIC50 [6, 19]: 6.52
- pIC50 ([6]; OCI-Ly10, venetoclax 0 nM): 6.82
